Data on 9 compounds can be found in patent US4156724A, “N-acylamino-alpha-arylacetamido cephalosporins and antibacterial compositions and methods containing them” (Sumitomo Chemical Company, Limited, priority 1974, dated 1979).

Common to all, as to type: cell-based
Assay [1] relates to Staphylococcus aureus 209 P. Nature of the assay: Minimum Inhibitory Concentration, Staphylococcus aureus 209 P. The settings on record: Staphylococcus aureus 209 P; read-out: Minimum Inhibitory Concentration. The procedure:
(§1) anti-microbial activity tests were carried out on the compounds obtained in the Examples.

The subject of assay [2] is Staphylococcus aureus FS 289. Nature of the assay: Minimum Inhibitory Concentration, Staphylococcus aureus FS 289. The settings on record: FS289; Staphylococcus aureus FS 289, strain resistant to penicillin; read-out: Minimum Inhibitory Concentration. The procedure:
as §1
*Staphylococcus aureus FS 289: strain resistant to penicillin

A further assay concerns Escherichia coli NIHJ. Nature of the assay: Minimum Inhibitory Concentration, Escherichia coli NIHJ. The settings on record: Escherichia coli NIHJ; read-out: Minimum Inhibitory Concentration. The procedure:
as §1

Assay [3] relates to Klebsiella pneumoniae 602. Nature of the assay: Minimum Inhibitory Concentration, Klebsiella pneumoniae 602. The settings on record: Klebsiella pneumoniae, 602, Klebsiella pneumoniae 602; read-out: Minimum Inhibitory Concentration. As to the method: as §1
Another assay has as its system Proteus vulgaris HX 19. Nature of the assay: Minimum Inhibitory Concentration, Proteus vulgaris HX 19. The settings on record: HX19; Proteus vulgaris HX 19; read-out: Minimum Inhibitory Concentration. As to the method: as §1
The subject of assay [4] is Pseudomonas aeruginosa 104. Nature of the assay: Minimum Inhibitory Concentration, Pseudomonas aeruginosa 104. The settings on record: Pseudomonas aeruginosa 104; read-out: Minimum Inhibitory Concentration. The procedure: as §1
In a further assay the test system is Serratia No. 72. Nature of the assay: Minimum Inhibitory Concentration, Serratia No. 72. The procedure:
as §1

The subject of assay [5] is Enterobacter aerogeneus No. 75. Nature of the assay: Minimum Inhibitory Concentration, Enterobacter aerogeneus No. 75. The settings on record: Enterobacter aerogeneus No. 75; read-out: Minimum Inhibitory Concentration. The procedure:
as §1

Values after ≈ are worked out from the molar mass of the structure shown.

Regarding `NC(=O)Nc1ccc([C@@H](NC(=O)c2cnccc2O)C(=O)N[C@@H]2C(=O)N3C(C(=O)O)=C(CSc4cnn[nH]4)CS[C@H]23)cc1` [Example 14], the MIC in assay [1] was 0.39 µg/mL (≈ 0.623 µM); in assay [2], 6.25 µg/mL (≈ 9.99 µM); in the assay on Escherichia coli NIHJ, 6.25 µg/mL (≈ 9.99 µM); in assay [3] it was 6.25 µg/mL (≈ 9.99 µM); in the assay on Proteus vulgaris HX 19 it was 0.1 µg/mL (≈ 0.16 µM); in assay [4], 6.25 µg/mL (≈ 9.99 µM). For the same compound, the MIC in the assay on Serratia No. 72 was determined as 50 µg/mL (≈ 79.9 µM); in assay [5], 12.5 µg/mL (≈ 20 µM).
On to `Cc1nnc(SCC2=C(C(=O)O)N3C(=O)[C@@H](NC(=O)[C@H](NC(=O)c4ccnnc4O)c4cccc(NC(N)=O)c4)[C@H]3SC2)s1` [Example 15], for which the MIC in assay [1] was determined as 0.39 µg/mL (≈ 0.593 µM); in assay [2], 6.25 µg/mL (≈ 9.5 µM); in the assay on Escherichia coli NIHJ it was 12.5 µg/mL (≈ 19 µM); in assay [3] it was 3.13 µg/mL (≈ 4.76 µM); with Proteus vulgaris HX 19, 0.1 µg/mL (≈ 0.152 µM); in assay [4], 6.25 µg/mL (≈ 9.5 µM). For the same compound, the results for the MIC (in the assay with Serratia No. 72; in assay [5]) were 50 µg/mL (≈ 76 µM) and 6.25 µg/mL (≈ 9.5 µM), respectively.
For the compound `Cc1nnc(SCC2=C(C(=O)O)N3C(=O)[C@@H](NC(=O)[C@H](NC(=O)c4ccnnc4O)c4ccc(NC(N)=O)cc4)[C@H]3SC2)s1` [Example 16], the MIC in assay [1] turned out to be 0.39 µg/mL (≈ 0.593 µM); in assay [2], 6.25 µg/mL (≈ 9.5 µM); with Escherichia coli NIHJ, 6.25 µg/mL (≈ 9.5 µM); in assay [3], 3.13 µg/mL (≈ 4.76 µM); with Proteus vulgaris HX 19 it was 0.2 µg/mL (≈ 0.304 µM); in assay [4], 6.25 µg/mL (≈ 9.5 µM). Further, the MIC in the assay on Serratia No. 72 was 50 µg/mL (≈ 76 µM); in assay [5] it was 6.25 µg/mL (≈ 9.5 µM).
For the compound `Cn1nnnc1SCC1=C(C(=O)O)N2C(=O)[C@@H](NC(=O)[C@H](NC(=O)c3ccnnc3O)c3ccc(NC(N)=O)cc3)[C@H]2SC1` [Example 17], the MIC in assay [1] was 0.39 µg/mL (≈ 0.608 µM); in assay [2] it was 6.25 µg/mL (≈ 9.74 µM); in the assay with Escherichia coli NIHJ it was 6.25 µg/mL (≈ 9.74 µM); in assay [3], 3.13 µg/mL (≈ 4.88 µM); with Proteus vulgaris HX 19 it was 0.1 µg/mL (≈ 0.156 µM); in assay [4], 6.25 µg/mL (≈ 9.74 µM). In addition, the figures for the MIC (with Serratia No. 72; in assay [5]) were 50 µg/mL (≈ 77.9 µM) and 12.5 µg/mL (≈ 19.5 µM), respectively.
Turning to `NC(=O)Nc1ccc([C@@H](NC(=O)c2ccnnc2O)C(=O)N[C@@H]2C(=O)N3C(C(=O)O)=C(CSc4cnn[nH]4)CS[C@H]23)cc1` [Example 18], the MIC in assay [1] amounted to 0.39 µg/mL (≈ 0.622 µM); in assay [2], 6.25 µg/mL (≈ 9.97 µM); with Escherichia coli NIHJ, 6.25 µg/mL (≈ 9.97 µM); in assay [3], 6.25 µg/mL (≈ 9.97 µM); with Proteus vulgaris HX 19, 0.2 µg/mL (≈ 0.319 µM); in assay [4], 6.25 µg/mL (≈ 9.97 µM). The MIC worked out at 50 µg/mL (≈ 79.8 µM) in the assay on Serratia No. 72 and 12.5 µg/mL (≈ 19.9 µM) in assay [5].
On to `NC(=O)Nc1ccc([C@@H](NC(=O)c2cncnc2O)C(=O)N[C@@H]2C(=O)N3C(C(=O)O)=C(CSc4nncs4)CS[C@H]23)cc1` [Example 19], for which the MIC in assay [1] is 0.39 µg/mL (≈ 0.606 µM); in assay [2], 6.25 µg/mL (≈ 9.71 µM); with Escherichia coli NIHJ, 12.5 µg/mL (≈ 19.4 µM); in assay [3], 6.25 µg/mL (≈ 9.71 µM); with Proteus vulgaris HX 19 it was 0.2 µg/mL (≈ 0.311 µM); in assay [4] it was 12.5 µg/mL (≈ 19.4 µM). In addition, the MIC against Serratia No. 72 is 50 µg/mL (≈ 77.7 µM); in assay [5], 25 µg/mL (≈ 38.8 µM).
Turning to `Cc1nnc(SCC2=C(C(=O)O)N3C(=O)[C@@H](NC(=O)[C@H](NC(=O)c4cnc5cccnc5c4O)c4ccc(NC(N)=O)cc4)[C@H]3SC2)s1` [Example 20], the MIC in assay [1] worked out at 0.78 µg/mL (≈ 1.1 µM); in assay [2], 3.13 µg/mL (≈ 4.42 µM); in the assay on Escherichia coli NIHJ, 3.13 µg/mL (≈ 4.42 µM); in assay [3], 1.56 µg/mL (≈ 2.2 µM); in the assay on Proteus vulgaris HX 19, 0.1 µg/mL (≈ 0.141 µM); in assay [4], 3.13 µg/mL (≈ 4.42 µM). For the same compound, the MIC against Serratia No. 72 is 12.5 µg/mL (≈ 17.7 µM); in assay [5] it was 3.13 µg/mL (≈ 4.42 µM).
For the compound `NC(=O)Nc1ccc([C@@H](NC(=O)c2cnc3cccnc3c2O)C(=O)N[C@@H]2C(=O)N3C(C(=O)O)=C(CSc4nncs4)CS[C@H]23)cc1` [Example 21], the MIC in assay [1] came out at 0.78 µg/mL (≈ 1.12 µM); in assay [2], 3.13 µg/mL (≈ 4.51 µM); with Escherichia coli NIHJ, 3.13 µg/mL (≈ 4.51 µM); in assay [3], 1.56 µg/mL (≈ 2.25 µM); in the assay on Proteus vulgaris HX 19, 0.2 µg/mL (≈ 0.288 µM); in assay [4], 3.13 µg/mL (≈ 4.51 µM). The MIC in the assay on Serratia No. 72 was found to be 12.5 µg/mL (≈ 18 µM); in assay [5], 3.13 µg/mL (≈ 4.51 µM).
Turning to `Cn1nnnc1SCC1=C(C(=O)O)N2C(=O)[C@@H](NC(=O)[C@H](NC(=O)c3cnc4cccnc4c3O)c3ccc(NC(N)=O)cc3)[C@H]2SC1` [Example 22], the MIC in assay [1] came to 0.78 µg/mL (≈ 1.13 µM); in assay [2], 6.25 µg/mL (≈ 9.04 µM); in the assay with Escherichia coli NIHJ it was 1.56 µg/mL (≈ 2.26 µM); in assay [3], 1.56 µg/mL (≈ 2.26 µM); with Proteus vulgaris HX 19 it was 0.1 µg/mL (≈ 0.145 µM); in assay [4], 3.13 µg/mL (≈ 4.53 µM). The MIC in the assay with Serratia No. 72 came out at 12.5 µg/mL (≈ 18.1 µM); in assay [5], 3.13 µg/mL (≈ 4.53 µM).
